Data reported in publication PMC3917281, “Identification and Biochemical Characterization of Halisulfate 3 and Suvanine as Novel Inhibitors of Hepatitis C Virus NS3 Helicase from a Marine Sponge” (Marine Drugs, 2014).

What was measured:
HCV NS3/4A protease = target: T1, HCV NS3/4A protease (Hepatitis C virus genotype 1a, UniProt P27958); assay: Fluorescence NS3 serine protease assay (FRET); format: biochemical
T1 construct: NS3 protein with a two-fold excess of the NS4A cofactor peptide Pep4AK was prepared in 1× assay buffer; made in house
Procedure: A fluorescence NS3 serine protease assay, based on fluorescence resonance energy transfer, was conducted using reagents provided in a SensoLyte™ 520 HCV protease assay kit (AnaSpec, San Jose, CA, USA), as described previously. Briefly, NS3 protein with a two-fold excess of the NS4A cofactor peptide Pep4AK was prepared in 1× assay buffer provided with the kit. HCV NS3/4A protease was mixed with increasing concentrations of inhibitor, and incubated at 37 °C for 15 min. The reaction was started by the addition of 5-FAM/QXL 520 substrate in a 20 µL total reaction volume containing 240 nM HCV NS3/4A protease and increasing concentrations of hal3 or suvanine. Reactions were then incubated at 37 °C for 120 min on a LightCycler 1.5 (Roche Diagnostics, Basel, Switzerland), and the fluorescence intensity was recorded every min for 120 min. NS3 serine protease activity was calculated as the initial reaction velocity in the sample containing inhibitor relative to the control sample containing DMSO vehicle rather than inhibitor.

NS3 ATPase activity = target: T2, NS3 ATPase activity (Hepatitis C virus genotype 1a, UniProt P27958); assay: ATPase assay ([γ-32P] ATP hydrolysis, thin-layer chromatography); format: biochemical; details: poly(U) RNA, 0–100 µM inhibitor
T2 construct: The full-length HCV NS3 protein with serine protease and NTPase/helicase activities was expressed and purified as described previously; made in house
Procedure: NS3 ATPase activity was determined directly by monitoring [γ-^32P] ATP hydrolysis by thin-layer chromatography, as described previously. The reaction mixture contained 25 mM MOPS-NaOH (pH 7.0), 1 mM dithiothreitol, 5 mM MgCl2, 5 mM CaCl2, 1 mM [γ-^32P] ATP (Muromachi Yakuhin, Tokyo, Japan), 300 nM NS3, 0.1 µg/µL poly (U) ssRNA (Sigma-Aldrich, St. Louis, MO, USA), and increasing concentrations of hal3 or suvanine in a volume of 10 µL. The reaction was conducted at 37 °C for 10 min, and stopped by the addition of 10 mM EDTA. Two microliters of each reaction mixture was then spotted onto a polyethyleneimine cellulose sheet (Merck, Darmstadt, Germany) and developed in 0.75 M LiCl/1 M formic acid solution for 20 min. The cellulose sheet was dried, and the released [γ-^32P] phosphoric acid was visualized using an Image Reader FLA-9000 and quantified using Multi Gauge software V 3.11 (Fujifilm, Tokyo, Japan). ATPase activity was calculated as the ratio of the signal intensity derived from the released Pi in the sample containing inhibitor to that in the control sample containing DMSO vehicle instead of inhibitor.

HCV NS3 helicase [1] = target: T3, HCV NS3 helicase (Hepatitis C virus genotype 1a, UniProt P27958); assay: Gel-based HCV NS3 helicase assay; format: biochemical; details: 0–100 µM inhibitor
T3 construct: The full-length HCV NS3 protein with serine protease and NTPase/helicase activities was expressed and purified as described previously; made in house
Procedure: A gel-based helicase assay was performed on HCV NS3 helicases using an Alexa Fluor 488-labeled dsRNA strand and capture strand with the same nucleic acid sequences described in Section 3.2. The dsRNA substrate was prepared by annealing the 5′ Alexa Fluor 488-labeled strand (5′-[…]-3′) to the complementary strand (5′-[…]-3′) at a 1:2 molar ratio. The same capture strand described in Section 3.2 was used. All nucleic acid strands were purchased from Japan Bio Services (Saitama, Japan). The reaction mixture for HCV NS3 helicase contained the same components as described in Section 3.2, with increasing concentrations of hal3 or suvanine in a reaction volume of 20 µL. The reaction was started by the addition of HCV NS3 helicase, and performed at 37 °C for 60 min using a GeneAmp PCR System 2700 (Applied Biosystems, Foster City, CA, USA). […] The helicase activity was calculated as the ratio of the signal intensity derived from ssRNA in the sample containing inhibitor to that in the control sample containing DMSO vehicle instead of inhibitor.

HCV NS3 helicase [2] = target: T3, HCV NS3 helicase; assay: PET-based fluorescence helicase assay; format: biochemical
Procedure: The PET-based fluorescence helicase assay was performed as described previously. The dsRNA substrate was prepared by annealing the 5′ BODIPY FL-labeled fluorescence strand (5′-[…]-3′) to the quencher strand (5′-[…]-3′) at a 1:2 molar ratio. The dsRNA substrate contains the 3′-overhang that is necessary for the NS3 helicase to bind RNA prior to duplex unwinding. The capture strand (5′-[…]-3′), which is complementary to the quencher strand, prevents the unwound duplexes from reannealing. None of the capture, quencher, or fluorescence strands are self-complementary. The fluorescence strand was purchased from J-Bio 21 Corporation (Tokyo, Japan), and was labeled with BODIPY FL at the 5′-end via an aminohexylphosphate linker with a six-carbon spacer. […]
The reaction was started by the addition of HCV NS3 helicase, and was performed at 37 °C for 30 min using a LightCycler 1.5 (Roche Diagnostics, Basel, Switzerland). The fluorescence intensity was recorded every 5 s from 0 to 5 min, and then every 30 s from 5 to 30 min. Helicase activity was calculated as the initial reaction velocity relative to control (in the absence of a marine extract, but presence of DMSO vehicle). The IC50 was calculated using KaleidaGraph (Synergy Software, Reading, PA, USA) by fitting plots of % activity vs. [I] using Equation (1) unless otherwise noted: [drawing 1] […]

DENV NS3 helicase = target: T4, DENV NS3 helicase (Dengue virus type 2, UniProt P29990); assay: Gel-based DENV NS3 helicase assay; format: biochemical; details: in the presence of 100 µM of each inhibitor
T4 construct: made in house
Procedure: A gel-based helicase assay was performed using DENV NS3 helicases, and the Alexa Fluor 488-labeled dsRNA strand and capture strand with the same nucleic acid sequences described in the Section 3.3. DENV NS3 helicase requires a single stranded 3′ overhang to unwind dsRNA substrates in the 3′ to 5′ direction; therefore, the substrate specificities of the DENV and HCV NS3 helicases are the same. The reaction mixture contained 50 mM Tris-HCl (pH 7.4), 1 mM DTT, 0.5% Tween 20, 0.25 µg/mL BSA, 2 mM MgCl2, 4 U RNasin (Promega), 5 mM ATP, 50 nM dsRNA substrate, 300 nM capture strand, an inhibitor, and 240 nM DENV NS3 in a total volume of 20 µL. DENV NS3 helicase was prepared as described previously. The reaction was started by the addition of DENV NS3 helicase, and was performed at 37 °C for 60 min using a GeneAmp PCR System 2700 (Applied Biosystems, Foster City, CA, USA). […] The helicase activity was calculated as the ratio of the signal intensity from ssRNA in the sample containing inhibitor to that in the control sample containing DMSO vehicle instead of inhibitor.

NS3 RNA binding activity = target: T5, NS3 RNA binding activity (Hepatitis C virus genotype 1a, UniProt P27958); assay: RNA binding assay (gel mobility shift); details: 32P-labeled ssRNA, 0–100 µM inhibitor
T5 construct: The full-length HCV NS3 protein with serine protease and NTPase/helicase activities was expressed and purified as described previously; made in house
Procedure: NS3 RNA binding activity was determined by gel mobility shift assay, as described previously. The ssRNA (5′-[…]-3′) synthesized by Gene Design (Osaka, Japan) was labeled at the 5′-end with [γ-^32P] ATP (Muromachi Yakuhin, Tokyo, Japan) using T4 polynucleotide kinase (Toyobo, Osaka, Japan) at 37 °C for 60 min, and purified using the phenol-chloroform extraction method. The reaction mixture contained 30 mM Tris-HCl (pH 7.5), 100 mM NaCl, 2 mM MgCl2, 1 mM dithiothreitol, 20 U RNasin Plus (Promega), 300 nM NS3, 0.1 nM ^32P-labeled ssRNA, and increasing concentrations of inhibitor in a volume of 20 µL. The reaction was performed at room temperature for 15 min. An equal volume of a dye solution containing 0.025% bromophenol blue and 10% glycerol in 0.5× TBE was then added to each reaction mixture, and samples were loaded onto a 6% native-polyacrylamide gel. The labeled RNA bands were visualized using an Image Reader FLA-9000 and quantified using Multi Gauge software V 3.11 (Fujifilm, Tokyo, Japan). RNA binding activity was calculated as the ratio of the signal intensity derived from the NS3-ssRNA complex in the sample containing hal3 or suvanine to that in the control sample containing DMSO vehicle rather than inhibitor.

farnesoid-X-receptor = tested on: farnesoid-X-receptor; parameters: method as in PMID 23656455; details: mammalian bile acid sensor; cited from earlier work
heat shock protein 60 = details: cited from earlier work
serine protease = details: cited from earlier work

T3 sequence (P27958 1027-1657): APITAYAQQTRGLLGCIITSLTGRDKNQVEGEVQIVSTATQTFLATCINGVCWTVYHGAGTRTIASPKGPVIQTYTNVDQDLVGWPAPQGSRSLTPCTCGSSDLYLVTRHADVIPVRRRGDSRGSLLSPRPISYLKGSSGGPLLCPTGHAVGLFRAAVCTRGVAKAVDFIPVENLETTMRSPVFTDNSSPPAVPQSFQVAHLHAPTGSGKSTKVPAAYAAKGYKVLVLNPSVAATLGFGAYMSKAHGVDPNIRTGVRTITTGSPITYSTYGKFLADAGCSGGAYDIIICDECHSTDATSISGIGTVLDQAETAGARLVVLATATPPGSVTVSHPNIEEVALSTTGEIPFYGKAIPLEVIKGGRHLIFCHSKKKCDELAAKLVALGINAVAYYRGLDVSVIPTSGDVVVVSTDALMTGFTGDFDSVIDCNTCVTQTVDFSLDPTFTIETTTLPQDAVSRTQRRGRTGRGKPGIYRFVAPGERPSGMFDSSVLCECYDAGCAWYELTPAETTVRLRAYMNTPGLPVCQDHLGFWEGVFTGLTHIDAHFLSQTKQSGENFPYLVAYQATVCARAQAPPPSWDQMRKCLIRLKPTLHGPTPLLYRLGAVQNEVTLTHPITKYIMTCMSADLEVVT
T5 sequence (P27958 1027-1657): as above
T2 sequence (P27958 1027-1657): as above
T1 sequence (P27958 1027-1657): as above
T4 sequence (P29990 1476-2093): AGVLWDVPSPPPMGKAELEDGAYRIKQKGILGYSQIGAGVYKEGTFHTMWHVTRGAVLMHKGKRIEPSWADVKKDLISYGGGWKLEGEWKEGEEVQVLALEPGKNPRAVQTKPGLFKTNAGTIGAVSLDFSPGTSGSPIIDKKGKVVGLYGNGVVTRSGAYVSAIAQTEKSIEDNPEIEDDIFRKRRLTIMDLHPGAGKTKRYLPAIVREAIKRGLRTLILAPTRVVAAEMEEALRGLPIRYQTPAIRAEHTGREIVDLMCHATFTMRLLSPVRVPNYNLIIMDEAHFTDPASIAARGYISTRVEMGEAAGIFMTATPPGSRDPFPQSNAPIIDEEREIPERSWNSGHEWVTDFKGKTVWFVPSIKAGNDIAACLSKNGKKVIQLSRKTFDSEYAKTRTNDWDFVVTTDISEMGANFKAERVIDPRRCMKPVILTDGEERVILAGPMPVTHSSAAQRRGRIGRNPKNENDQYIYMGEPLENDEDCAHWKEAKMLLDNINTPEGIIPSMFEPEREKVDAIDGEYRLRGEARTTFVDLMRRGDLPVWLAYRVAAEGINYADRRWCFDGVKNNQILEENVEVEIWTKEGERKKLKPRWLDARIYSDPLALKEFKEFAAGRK

C[C@@H]1CCC2=C(CCCC2(C)C)[C@@]1(C)CC[C@H](CCCc1ccoc1)COS(=O)(=O)[O-].[Na+] [hal3, halisulfate 3]
IC50 (HCV NS3/4A protease): 14 µM
IC50 (NS3 ATPase activity): 8 µM
helicase-catalyzed RNA unwinding (HCV NS3 helicase [1]): inhibited helicase-catalyzed RNA unwinding in a dose-dependent manner
IC50 (HCV NS3 helicase [2]): 4 µM
DENV NS3 helicase activity (DENV NS3 helicase): did not abolish
IC50 (NS3 RNA binding activity): 8 µM

CC1(C)CCC[C@]2(C)[C@H]3CC/C(=C\OS(=O)(=O)[O-])[C@H](CCc4ccoc4)[C@@]3(C)CC[C@@H]12.[Na+] [suvanine]
IC50 (HCV NS3/4A protease): 34 µM
IC50 (NS3 ATPase activity): 7 µM
helicase-catalyzed RNA unwinding (HCV NS3 helicase [1]): inhibited helicase-catalyzed RNA unwinding in a dose-dependent manner
farnesoid-X-receptor antagonism (farnesoid-X-receptor): antagonist
interference with heat shock protein 60 (heat shock protein 60): interferes with
IC50 (HCV NS3 helicase [2]): 3 µM
DENV NS3 helicase activity (DENV NS3 helicase): did not abolish
IC50 (NS3 RNA binding activity): 3 µM
serine protease inhibition (serine protease): serine protease inhibitor
